# From publication PMC9572521, “Synthesis, Docking Studies and Pharmacological Evaluation of Serotoninergic Ligands Containing a 5-Norbornene-2-Carboxamide Nucleus” (Molecules, 2022)
# Read-outs that look alike come from different tables or passages of the source.
# Legend:
# 5-HT2A receptor = 5-HT2A receptor (Rattus norvegicus, UniProt P14842); experiment: 5-HT2A competition binding assay ([3H]ketanserin, frontal cortex homogenates)
# human 5-HT2C receptor = molecular target: T1, human 5-HT2C receptor (Homo sapiens, UniProt P28335); experiment: 5-HT2C competition binding assay ([3H]mesulergine, transfected cell membranes)
# T1 sequence (P28335 33-458): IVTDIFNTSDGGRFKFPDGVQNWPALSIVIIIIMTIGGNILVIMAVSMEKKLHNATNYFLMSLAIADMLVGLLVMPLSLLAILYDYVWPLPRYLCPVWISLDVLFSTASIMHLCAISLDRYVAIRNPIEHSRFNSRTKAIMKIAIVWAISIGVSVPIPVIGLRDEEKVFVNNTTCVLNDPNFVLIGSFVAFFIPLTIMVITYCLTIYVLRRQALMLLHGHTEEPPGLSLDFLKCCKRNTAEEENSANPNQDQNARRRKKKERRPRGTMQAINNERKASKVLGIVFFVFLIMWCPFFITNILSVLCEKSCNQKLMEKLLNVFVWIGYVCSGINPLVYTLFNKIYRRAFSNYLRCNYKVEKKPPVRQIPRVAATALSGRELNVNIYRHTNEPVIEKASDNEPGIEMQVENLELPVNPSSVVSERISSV
# 5-HT1A receptor = molecular target: T2, 5-HT1A receptor (Rattus norvegicus, UniProt P19327); experiment: Functional 5-HT1A receptor [35S]GTPγS assay (agonist mode); type: biochemical; settings: for Emax: read-out: 5-HT1A Receptor G-Protein Stimulation Emax (%) ± SEM;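 on all read-outs here: male Sprague-Dawley rat hippocampal membranes incubated 90 min at 37 °C, bound label counted by scintillation after filtration, non-specific binding defined with 100 µM unlabeled GTPγS, one-site curve fit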
# T2 construct: 15 μg/mL of hippocampus homogenate was incubated in triplicate with 0.8 nM; from tissue; host or cells: rat hippocampus homogenate
# T2 sequence (P19327 1-422): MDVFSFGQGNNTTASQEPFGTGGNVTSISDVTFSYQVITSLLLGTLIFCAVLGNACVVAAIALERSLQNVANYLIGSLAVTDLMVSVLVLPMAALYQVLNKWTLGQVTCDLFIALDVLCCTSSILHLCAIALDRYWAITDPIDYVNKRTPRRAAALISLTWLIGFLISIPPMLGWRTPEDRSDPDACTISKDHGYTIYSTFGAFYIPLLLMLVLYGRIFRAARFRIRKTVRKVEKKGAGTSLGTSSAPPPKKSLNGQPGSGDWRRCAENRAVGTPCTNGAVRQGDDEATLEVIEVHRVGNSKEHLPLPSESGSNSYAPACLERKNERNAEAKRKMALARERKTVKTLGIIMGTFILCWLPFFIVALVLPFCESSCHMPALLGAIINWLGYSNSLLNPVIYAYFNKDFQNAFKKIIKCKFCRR
# D2 receptor = molecular target: T3, D2 receptor (Rattus norvegicus, UniProt P61169); experiment: Functional D2 receptor [35S]GTPγS assay (antagonist mode vs dopamine; basal for agonism); type: biochemical; settings: against 40 µM dopamine, rat striatal homogenate;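 further: [35S]GTPγS binding counted by scintillation after 60 min at 30 °C, nonspecific binding defined with 100 µM unlabeled GTPγS, inhibition curves fitted by one-site nonlinear regression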
# T3 construct: 15μg/mL of striatal homogenate was incubated in triplicate; from tissue; host or cells: rat striatum homogenate
# T3 sequence (P61169 whole entry): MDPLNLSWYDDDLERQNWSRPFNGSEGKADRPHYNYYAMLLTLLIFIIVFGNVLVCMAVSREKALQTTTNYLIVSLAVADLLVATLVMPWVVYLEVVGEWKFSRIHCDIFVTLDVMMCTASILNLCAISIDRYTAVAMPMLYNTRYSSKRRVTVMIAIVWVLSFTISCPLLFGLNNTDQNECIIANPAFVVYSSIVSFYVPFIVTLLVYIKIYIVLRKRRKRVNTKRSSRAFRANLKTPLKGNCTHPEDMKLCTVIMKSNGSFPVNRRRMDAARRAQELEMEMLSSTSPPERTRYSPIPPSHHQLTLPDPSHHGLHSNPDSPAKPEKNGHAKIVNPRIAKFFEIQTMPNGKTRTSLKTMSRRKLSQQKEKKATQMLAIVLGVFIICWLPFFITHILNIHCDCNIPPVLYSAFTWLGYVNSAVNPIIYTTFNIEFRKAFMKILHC
# [1] = [3H]mesulergine, human 5-HT2C membranes, read-out: 5-HT2C Ki (95% CI)
# [2] = [35S]GTPγS, rat hippocampus homogenate, read-out: 5-HT1A Receptor G-Protein Stimulation EC50 (95% CI)
# [3] = [35S]GTPγS, rat hippocampus homogenate
# [4] = read-out: D2 receptor antagonistic activity IC50 (95% CI)
# [5] = read-out: D2 receptor antagonistic activity pIC50 (M ± SEM) (converted)
# [6] = [3H]mesulergine, human 5-HT2C membranes, ± SEM, read-out: 5-HT2C pKi (converted)
# [7] = [35S]GTPγS, rat hippocampus homogenate, ± SEM
# [8] = ± SEM, read-out: 5-HT2A pKi (converted)
# 5-HT2A receptor, sequence (P14842 whole entry): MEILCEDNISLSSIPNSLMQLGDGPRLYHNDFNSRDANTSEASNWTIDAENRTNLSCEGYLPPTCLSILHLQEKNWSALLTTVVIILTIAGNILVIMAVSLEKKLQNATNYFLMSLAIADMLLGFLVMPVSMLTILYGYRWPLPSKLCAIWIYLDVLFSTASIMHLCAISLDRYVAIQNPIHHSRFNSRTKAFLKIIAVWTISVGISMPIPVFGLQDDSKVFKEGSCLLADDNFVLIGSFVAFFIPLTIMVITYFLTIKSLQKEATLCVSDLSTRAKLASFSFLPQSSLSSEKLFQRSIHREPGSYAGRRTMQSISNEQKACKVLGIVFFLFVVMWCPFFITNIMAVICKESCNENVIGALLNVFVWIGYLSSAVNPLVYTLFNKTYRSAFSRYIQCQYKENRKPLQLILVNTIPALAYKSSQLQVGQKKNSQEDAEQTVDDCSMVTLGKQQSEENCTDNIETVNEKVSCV
SMILES,Ki (5-HT2A receptor; read-out: 5-HT2A Ki (95% CI)) [nM],Ki (human 5-HT2C receptor; [1]) [nM],EC50 (5-HT1A receptor; [2]) [nM],Emax (5-HT1A receptor; [3]) [%],IC50 (D2 receptor; [4]) [nM],5-HT1A Receptor G-Protein Stimulation Emax (%) ± SEM (5-HT1A receptor; [3]),other results
"COc1ccccc1N1CCN(CCCNC(=O)C2CC3C=CC2C3)CC1 (single isomer, unassigned) [Norbo-6, endo-N-(3-(4-(2-methoxyphenyl)piperazin-1-yl)propyl)bicyclo[2.2.1]hept-5-ene-2-carboxamide]",88.7,1030,3220,131 ± 5.5,59500,–,IC50 (D2 receptor; [5]): 60300 nM
"CCCN(CCC)C1CCc2cccc(O)c2C1 (centres unmarked) [Norbo 8-OH-DPAT, reference compound]",–,–,–,–,–,–,Emax (5-HT1A receptor): 154 ± 2.3%
"O=C(NCCCN1CCN(c2ccccc2)CC1)C1CC2C=CC1C2 (stereo not drawn) [Norbo-1, Exo-N-(3-(4-phenylpiperazin-1-yl)propyl)bicyclo[2.2.1]hept-5-ene-2-carboxamide]",74,3890,1200,174 ± 4.15,101000,–,–
"O=C(NCCCN1CCN(c2ccccc2)CC1)C1CC2C=CC1C2 (stereo not drawn) [Norbo-2, endo-N-(3-(4-phenylpiperazin-1-yl)propyl)bicyclo[2.2.1]hept-5-ene-2-carboxamide]",99.1,1610,1630,–,106000,188 ± 4.9 %,"EC50 (5-HT1A receptor; [35S]GTPγS, rat hippocampus homogenate, ± SEM, read-out: 5-HT1A Receptor G-Protein Stimulation pEC50 (converted)): 1660 nM"
"Cc1cccc(N2CCN(CCCNC(=O)C3CC4C=CC3C4)CC2)c1C (stereo not drawn) [Norbo-3, Exo-N-(3-(4-(2,3-dimethylphenyl)piperazin-1-yl)propyl)bicyclo[2.2.1]hept-5-ene-2-carboxamide]",23.5,250,177,185 ± 3.2,71000,–,–
"COc1ccc(N2CCN(CCCNC(=O)C3CC4C=CC3C4)CC2)cc1 (stereo not drawn) [Norbo-7, Exo-N-(3-(4-(4-methoxyphenyl)piperazin-1-yl)propyl)bicyclo[2.2.1]hept-5-ene-2-carboxamide]",105,51.3,348,169 ± 3.5,51500,–,–
"COc1ccc(N2CCN(CCCNC(=O)C3CC4C=CC3C4)CC2)cc1 (stereo not drawn) [Norbo-8, endo-N-(3-(4-(4-methoxyphenyl)piperazin-1-yl)propyl) bicyclo[2.2.1]hept-5-ene-2-carboxamide]",127,398,165,–,60400,167 ± 2.3 %,–
"O=C(NCCCN1CCN(c2ccccc2Cl)CC1)C1CC2C=CC1C2 (stereo not drawn) [Norbo-9, Exo-N-(3-(4-(2-chlorophenyl)piperazin-1-yl)propyl) bicyclo[2.2.1]hept-5-ene-2-carboxamide]",109,2790,207,149 ± 3.1,20100,–,IC50 (D2 receptor; [5]): 20400 nM
"O=C(NCCCN1CCN(c2ccccc2Cl)CC1)C1CC2C=CC1C2 (stereo not drawn) [Norbo-10, endo-N-(3-(4-(2-chlorophenyl)piperazin-1-yl)propyl)bicyclo[2.2.1]hept-5-ene-2-carboxamide]",254,< 40,198,–,21500,163 ± 2.4 %,Ki (human 5-HT2C receptor; [6]): 13.5 nM
"O=C(NCCCN1CCN(c2ccc(Cl)cc2)CC1)C1CC2C=CC1C2 (stereo not drawn) [Norbo-11, Exo-N-(3-(4-(4-chlorophenyl)piperazin-1-yl)propyl)bicyclo[2.2.1]hept-5-ene-2-carboxamide]",149,< 40,–,–,31200,no activity,"Ki (human 5-HT2C receptor; [6]): 30.9 nM; 5-HT1A Receptor G-Protein Stimulation EC50 (95% CI, nM) (5-HT1A receptor; [3]): no activity; 5-HT1A Receptor G-Protein Stimulation pEC50 (5-HT1A receptor; [7]): no activity; IC50 (D2 receptor; [5]): 31600 nM"
"O=C(NCCCN1CCN(c2ccc(Cl)cc2)CC1)C1CC2C=CC1C2 (stereo not drawn) [Norbo-12, endo-N-(3-(4-(4-chlorophenyl)piperazin-1-yl)propyl)bicyclo[2.2.1]hept-5-ene-2-carboxamide]",227,34900,1870,127 ± 5.1,100000,–,IC50 (D2 receptor; [5]): 102000 nM
"O=C(NCCCN1CCN(c2ccc(Cl)c(Cl)c2)CC1)C1CC2C=CC1C2 (stereo not drawn) [Norbo-13, Exo-N-(3-(4-(3,4-dichlorophenyl)piperazin-1-yl)propyl)bicyclo[2.2.1]hept-5-ene-2-carboxamide]",28.8,122,–,–,68900,no activity,"5-HT1A Receptor G-Protein Stimulation EC50 (95% CI, nM) (5-HT1A receptor; [3]): no activity; 5-HT1A Receptor G-Protein Stimulation pEC50 (5-HT1A receptor; [7]): no activity"
"O=C(NCCCN1CCN(c2ccccc2F)CC1)C1CC2C=CC1C2 (stereo not drawn) [Norbo-15, Exo-N-(3-(4-(2-fluorophenyl)piperazin-1-yl)propyl)bicyclo[2.2.1]hept-5-ene-2-carboxamide]",82.6,31,926,–,62700,161 ± 4.5%,Ki (human 5-HT2C receptor; [6]): 31.6 nM
"O=C(NCCCN1CCN(c2ccccn2)CC1)C1CC2C=CC1C2 (stereo not drawn) [Norbo-21, Exo-N-(3-(4-(pyridin-2-yl)piperazin-1-yl)propyl)bicyclo[2.2.1]hept-5-ene-2-carboxamide]",258,1340,588,181 ± 2.5,181000,–,–
"O=C(NCCCN1CCN(c2ccccn2)CC1)C1CC2C=CC1C2 (stereo not drawn) [Norbo-22, endo-N-(3-(4-(pyridin-2-yl)piperazin-1-yl)propyl)bicyclo[2.2.1]hept-5-ene-2-carboxamide]",–,873,782,–,125000,186 ± 4.4 %,Ki (5-HT2A receptor; [8]): 355 nM
"O=C(NCCCN1CCN(c2ncccn2)CC1)C1CC2C=CC1C2 (stereo not drawn) [Norbo-23, Exo-N-(3-(4-(pyrimidin-2-yl)piperazin-1-yl)propyl)bicyclo[2.2.1]hept-5-ene-2-carboxamide]",1080,353,2400,181 ± 4.1,255000,–,–
"O=C(NCCCN1CCN(c2ncccn2)CC1)C1CC2C=CC1C2 (stereo not drawn) [Norbo-24, endo-N-(3-(4-(pyrimidin-2-yl)piperazin-1-yl)propyl)bicyclo[2.2.1]hept-5-ene-2-carboxamide]",–,211,1720,–,206000,177 ± 6.1 %,Ki (5-HT2A receptor; [8]): 1380 nM; Ki (human 5-HT2C receptor; [6]): 214 nM
"O=C(NCCCN1CCN(Cc2ccc3c(c2)OCO3)CC1)C1CC2C=CC1C2 (stereo not drawn) [Norbo-25, Exo-N-(3-(4-(benzo[d][1,3]dioxol-5-ylmethyl)piperazin-1-yl)propyl)bicyclo[2.2.1]hept-5-ene-2-carboxamide]",–,1050,1910,184 ± 6.4,–,–,"Ki (5-HT2A receptor; [8]): 372 nM; D2 receptor antagonistic activity IC50 (95% CI, µM) (D2 receptor): no activity; D2 receptor antagonistic activity pIC50 (M ± SEM) (D2 receptor): no activity"
"O=C(NCCCN1CCN(Cc2ccc3c(c2)OCO3)CC1)C1CC2C=CC1C2 (stereo not drawn) [Norbo-26, endo-N-(3-(4-(benzo[d][1,3]dioxol-5-ylmethyl)piperazin-1-yl)propyl)bicyclo[2.2.1]hept-5-ene-2-carboxamide]",584,–,7500,–,–,178 ± 22.6 %,"Ki (human 5-HT2C receptor; [6]): 2290 nM; D2 receptor antagonistic activity IC50 (95% CI, µM) (D2 receptor): no activity; D2 receptor antagonistic activity pIC50 (M ± SEM) (D2 receptor): no activity"
"O=C(NCCCN1CCN(C(=O)c2ccco2)CC1)C1CC2C=CC1C2 (stereo not drawn) [Norbo-27, Exo-N-(3-(4-(furan-2-carbonyl)piperazin-1-yl)propyl)bicyclo[2.2.1]hept-5-ene-2-carboxamide]",1130,1780,–,–,66600,no activity,"5-HT1A Receptor G-Protein Stimulation EC50 (95% CI, nM) (5-HT1A receptor; [3]): no activity; 5-HT1A Receptor G-Protein Stimulation pEC50 (5-HT1A receptor; [7]): no activity; agonist activity at the 5-HT1A receptor (5-HT1A receptor; [35S]GTPγS, result in words): no agonist activity"
"COc1cc(OC)c(C(=O)CCCCN2CCC3(CC2)NC(=O)NC3=O)cc1NS(=O)(=O)c1ccc(C(F)(F)F)cc1 [RS102221, reference compound]",–,–,–,–,–,–,5-HT2C pKi (human 5-HT2C receptor): 8.25 ± 0.21; Ki (human 5-HT2C receptor; read-out: 5-HT2C Ki (95% CI)): 5.56 nM
